For one data set, the system named is GBM0308 cells (CSCs). The data set is described as follows: Annexin V/PI flow cytometry apoptosis assay. It is filed as cell-based, human. Particulars: 1 μM, 12 h and 24 h. As for the experimental part: (§1) To gain additional mechanistic insights into GBM cell death induced by (−)-20, the inventors conducted several functional assays. The inventors first derived a single neurosphere from GBM0308 cells cultured in stem cell conditions, which was treated with either DMSO or (−)-20 at varying doses for three days followed by staining with PI and Hoechst dyes and subsequent imaging. […] To capture the kinetics of apoptotic events, the inventors employed caspase 3/7 staining of GBM0308 neurospheres treated with either DMSO or (−)-20 and subsequently evaluated at three timepoints over a 48-hour period. […] (FIG. 5B).
Apoptosis Assays: For the Caspase 3/7 assay single neurospheres were generated as described above. On day four, neurospheres were treated with compound (−)-20. Apoptosis in treated tumorspheres was assessed using Nexcelom's ViaStain™ Live Caspase 3/7 Detection kit (Nexcelcom, CS1-V0002-1). […] Plates were imaged using the “neurosphere 1+Mask” application to measure fluorescent intensities of the caspase dye, as described previously.^70 Apoptosis was quantified using the FITC Annexin V apoptosis detection kit II (Invitrogen). […] At 12 h and 24 h after treatment, neurospheres were gently dissociated by using trypsin 0.025%, stained with PI and FITC and analyzed by flow cytometery using a Bio-Rad ZE5 Cell Analyzer.

The subject of another data set is BT145 CSCs. The data set is described as follows: Dose-response killing of CSCs in BT145 glioblastoma cell line. Format: cell-based. The following applies: Homo sapiens, read-out: CSC EC50. As for the experimental part:
(§2) Cell Culture: Glioblastoma stem cell lines GBM0308, BT145, and BT112 were cultured in neurobasal (NBE medium) containing N-2 and B-27 supplements, EGF, bFGF, L-glutamine, and Penicillin-Streptomycin), as described previously.^19 Adherent GBM cells were cultured in serum-containing DMEM media (Invitrogen) supplemented with 10% fetal bovine serum (Corning Cellgro™). Cells were incubated at 37° C. and 5% CO2 to allow neurosphere formation. For seeding and subculturing, the neurospheres were gently trypsinized with 0.025% trypsin to form a single-cell suspension.
(§3) Dose-Response Testing in GBM Cells: Briefly, on day 1, cells were seeded in triplicate. For CSCs, 1500 cells/well were plated in a low attachment 96-well plate with NBE media and incubated for 3 days at 37° C. and 5% CO2 to allow the formation of neurospheres. For non-CSCs, 3000 cells/well were plated in a 96-well plate with DMEM media supplemented with 10% FBS. Similarly, the assay plates were also incubated for the same duration. Compound treatments started on day 4. […] After incubation, plates were read by Celigo imaging cytometer using an inbuilt Celigo application; Cell Viability (Dead+Total). For the viability measurement, the total number of neurospheres/cells and dead neurospheres/cells in each well were counted by the cytometer. […]

The next data set has as its system BT112 CSCs. The data set is described as follows: Dose-response killing of CSCs in BT112 glioblastoma cell line. It is filed as cell-based. The following applies: Homo sapiens, read-out: CSC EC50. As for the experimental part: as §2, §3
The test system of another data set is GBM0308 neurospheres. The data set is described as follows: Neurosphere formation assay (single neurosphere, PI/Hoechst). Format: cell-based. The following applies: three days treatment. As for the experimental part: as §1
Neurosphere Formation Assays: Single neurospheres were generated by seeding GBM0308 cells (400 cells per well) in a 384-well ultra-low attachment round bottom microplate (Nexcelom Bioscience, ULA-384 U). The plates were then centrifuged at 300×g for 10 minutes to cluster cells at the bottom of the wells, followed by incubation at 37° C. and 5% CO2 for 4 days to allow the formation of single neurospheres and treated with either DMSO or drugs at concentrations of 3.3, 1.11, 0.37, 0.12, 0.041, 0.013, 0.004 μM. On Day 7, neurospheres were stained with propidium iodide and Hoechst, as described above. The “neurosphere 1+Mask” application was used to measure the fluorescent intensities of PI, using Celigo cytometer as described previously.^70

The subject of the next data set is GBM0308 stem cells. As to the kind of experiment: RNA sequencing of treated GBM CSCs. It is filed as cell-based, human. The following applies: 0.1 μM and 1 μM, 12 h and 24 h. The source says:
To understand the transcriptomic changes underlying (−)-20 effects on GBM CSCs, the inventors performed RNA sequencing experiments in these cells. […] Furthermore, upon compound treatment, the inventors observed the downregulation of several hallmark gene sets associated with critical cellular processes, including apoptosis, glycolysis, MTORC1 signaling, NOTCH signaling, epithelial-mesenchymal transition (EMT), and angiogenesis (FIGS. 5D and 18A). […] This observation emphasizes the complexity of cell death mechanisms and the potential origins of selectivity of (−)-20 against CSCs. […] (FIG. 5E).
RNA Sequencing and Analysis: GBM0308 cells cultured in NBE medium were treated with compound (−)-20 at concentrations of 0.1 μM, 1 μM and DMSO. At 12 h and 24 h timepoints, total RNA was extracted using RNeasy mini kit (Qiagen) as per the manufacturer's instruction. Preparation of the RNA library and transcriptome sequencing were conducted by Novogene. […]

These results are taken from US12612395B2, “Rocaglate derivatives and uses thereof” (TRUSTEES OF BOSTON UNIVERSITY, priority 2023, dated 2026).

With `COc1cc(OC)c2c(c1)O[C@@]1(c3ccc(Br)cc3)[C@H](c3ccccc3)[C@@H](C(=O)NS(=O)(=O)N(C)C)[C@@H](O)[C@@]21O` [(−)-20, (1R,2R,3S,3aR,8bS)-3a-(4-bromophenyl)-N—(N,N-dimethylsulfamoyl)-1,8b-dihydroxy-6,8-dimethoxy-3-phenyl-2,3,3a,8b-tetrahydro-1H-cyclopenta[b]benzofuran-2-carboxamide], the “Annexin V/PI staining (apoptosis)” value in the data set with GBM0308 cells (CSCs) is listed as “induced apoptosis”. The values for the EC50 in the data set with BT145 CSCs and with BT112 CSCs were 93 nM and 34 nM, respectively. The “concentration from which cytotoxic effects on CSC neurospheres are seen (PI staining)” value in the data set on GBM0308 neurospheres was not below 120 nM. Further, the “effect on neurosphere size, in words” value with GBM0308 neurospheres (varying doses) is listed as “dose-dependent reduction in neurosphere size”. In addition, in the data set with GBM0308 stem cells, the “expression of genes involved in stem cell maintenance and survival (NOTCH1, NOTCH2, NOTCH3, SALL3, SOX2)” value is on record as “downregulated”.
